Experimental data taken from patent US20260022142A1, “MACROCYCLIC IMMUNOMODULATORS” (Bristol-Myers Squibb Company, priority 2022, published 2026).
Numbered stars: 1 amine (or outer) side, 2 acyl side, 3 side chain; on linkers, the order of the positions; unused ones are H or OH. Bridge positions count the residues as written; N and C are the ends. Square brackets hold non-standard residues; d marks the D form. Peptide text beside a SMILES is read from it. * marks the point of attachment. ξ: configuration not given here. Phe(4-COOH) = N[C@@H](Cc1ccc(C(=O)O)cc1)C(=O)O; d(γGlu) = O=C(O)[C@@H](CCC(=O)[*:2])N[*:1]; Bip = N[C@@H](Cc1ccc(-c2ccccc2)cc1)C(=O)O; Phe(3-Me) = Cc1cccc(C[C@H](N)C(=O)O)c1; hArg = N=C(N)NCCCC[C@H](N)C(=O)O; Cha = N[C@@H](CC1CCCCC1)C(=O)O; Cit = NC(=O)NCCC[C@H](N)C(=O)O; Thr(3ξ) = CC(O)[C@H](N)C(=O)O; dDab = NCC[C@@H](N)C(=O)O; Carboxymethyl = O=C(O)C*; Orn = NCCC[C@H](N)C(=O)O; Aun = NCCCCCCCCCCC(=O)O; Dab = NCC[C@H](N)C(=O)O; AEEA = NCCOCCOCC(=O)O

Biological target: T1, PD-1/PD-L1 interaction (PE-labeled human PD-L1-Ig binding to Jurkat cell line over-expressing human PD-1) (Homo sapiens, UniProt Q15116)
T1 construct: expressed in transfected cells; host or cells: Jurkat
T1 sequence (Q15116 25-288): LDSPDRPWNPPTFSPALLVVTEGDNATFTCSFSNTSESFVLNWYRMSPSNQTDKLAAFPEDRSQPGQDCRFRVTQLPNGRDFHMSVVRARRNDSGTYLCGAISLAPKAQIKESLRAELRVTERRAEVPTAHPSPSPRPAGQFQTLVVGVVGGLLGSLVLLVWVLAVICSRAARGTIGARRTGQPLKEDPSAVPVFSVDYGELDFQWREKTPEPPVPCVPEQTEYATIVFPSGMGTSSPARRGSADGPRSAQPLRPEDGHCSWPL
Test: Jurkat-PD-1 Cell Binding High-Content Screening Assay (CBA)
Type: cell-based
Conditions: Jurkat cell line over-expressing human PD-1; PE-labeled PD-L1-Ig 20 nM final; read-out: Jurkat hPD1-PDL1 IC50
Method in brief: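 Binding of fluorescent PD-L1-Ig (20 nM final) to Jurkat-PD-1 cells was measured by automated imaging after 1 h, following a 2 h compound pre-treatment at 37° C.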

## CC(C)C[C@H]1NC(=O)[C@H](CCCN)NC(=O)[C@H](Cc2ccc(O)cc2)NC(=O)[C@H](Cc2ccc(-c3ccccc3)cc2)NC(=O)[C@H](C(C)C)NC(=O)[C@H](Cc2c[nH]c3ccccc23)NC(=O)[C@H](CC(=O)O)NC(=O)[C@H](Cc2ccc(OCC(=O)O)cc2)NC(=O)[C@H](CCCNC(=N)N)NC(=O)CSC[C@@H](C(=O)NCCOCCOCC(=O)NCCCCCCCCCCC(=O)O)NC(=O)[C@H](C(C)O)NC(=O)[C@H](C(C)C)NC(=O)[C@H](CC2CCCCC2)NC(=O)[C@H](CCN)NC1=O (stereo partly drawn) [Compound 3393] ({CH2CO}-RY(Carboxymethyl)DWV[Bip]Y[Orn][dL][Dab][Cha]V[Thr(3ξ)]C[AEEA][Aun]-OH; thioether N-14)
  IC50: 12.8 nM

## Cc1cccc(C[C@@H]2NC(=O)[C@H](CC(=O)O)NC(=O)[C@H](Cc3ccc(OCC(=O)O)cc3)NC(=O)[C@H](C(C)O)NC(=O)CSC[C@@H](C(=O)NCCOCCOCC(=O)NCCCCCCCCCCC(=O)O)NC(=O)[C@H](CCC(N)=O)NC(=O)[C@H](C(C)C)NC(=O)[C@H](CC3CCCCC3)NC(=O)[C@H](CCN)NC(=O)[C@@H](CC(C)C)NC(=O)[C@H](CCN)NC(=O)[C@H](Cc3ccc(O)cc3)NC(=O)[C@H](Cc3ccc(-c4ccccc4)cc3)NC(=O)[C@H](C(C)C)NC2=O)c1 (stereo partly drawn) [Compound 3394] ({CH2CO}-[Thr(3ξ)]Y(Carboxymethyl)D[Phe(3-Me)]V[Bip]Y[Dab][dL][Dab][Cha]VQC[AEEA][Aun]-OH; thioether N-14)
  IC50: 6.9 nM

## CC(C)C[C@H]1NC(=O)[C@H](CCCN)NC(=O)[C@H](Cc2ccc(O)cc2)NC(=O)[C@H](Cc2ccc(-c3ccccc3)cc2)NC(=O)[C@H](C(C)C)NC(=O)[C@H](Cc2c[nH]c3ccccc23)NC(=O)[C@H](CC(=O)O)NC(=O)[C@H](Cc2ccc(OCC(=O)O)cc2)NC(=O)[C@H](CCCCNC(=N)N)NC(=O)CSC[C@@H](C(=O)N[C@@H](CCN)C(=O)NCCCCCCCCCCC(=O)O)NC(=O)[C@H](CCC(=O)O)NC(=O)[C@H](C(C)C)NC(=O)[C@H](CC2CCCCC2)NC(=O)[C@H](CCN)NC1=O [Compound 3395] ({CH2CO}-[hArg]Y(Carboxymethyl)DWV[Bip]Y[Orn][dL][Dab][Cha]VEC[Dab][Aun]-OH; thioether N-14)
  IC50: 10 nM

## Cc1cccc(C[C@@H]2NC(=O)[C@H](CC(=O)O)NC(=O)[C@H](Cc3ccc(OCC(=O)O)cc3)NC(=O)[C@H](CCCCNC(=N)N)NC(=O)CSC[C@@H](C(=O)NCCOCCOCC(=O)NCCCCCCCCCCC(=O)O)NC(=O)[C@H](CCC(N)=O)NC(=O)[C@H](C(C)C)NC(=O)[C@H](CC3CCCCC3)NC(=O)[C@H](CCN)NC(=O)[C@@H](CC(C)C)NC(=O)[C@H](CCN)NC(=O)[C@H](Cc3ccc(O)cc3)NC(=O)[C@H](Cc3ccc(-c4ccccc4)cc3)NC(=O)[C@H](C(C)C)NC2=O)c1 [Compound 3396] ({CH2CO}-[hArg]Y(Carboxymethyl)D[Phe(3-Me)]V[Bip]Y[Dab][dL][Dab][Cha]VQC[AEEA][Aun]-OH; thioether N-14)
  IC50: 9.1 nM

## Cc1cccc(C[C@@H]2NC(=O)[C@H](CC(=O)O)NC(=O)[C@H](Cc3ccc(OCC(=O)O)cc3)NC(=O)[C@H](C(C)O)NC(=O)CSC[C@@H](C(=O)NCCOCCOCC(=O)NCCCCCCCCCCC(=O)O)NC(=O)[C@H](CCCNC(N)=O)NC(=O)[C@H](C(C)C)NC(=O)[C@H](CC3CCCCC3)NC(=O)[C@H](CCN)NC(=O)[C@@H](CC(C)C)NC(=O)[C@H](CCN)NC(=O)[C@H](Cc3ccc(O)cc3)NC(=O)[C@H](Cc3ccc(-c4ccccc4)cc3)NC(=O)[C@H](C(C)C)NC2=O)c1 (stereo partly drawn) [Compound 3397] ({CH2CO}-[Thr(3ξ)]Y(Carboxymethyl)D[Phe(3-Me)]V[Bip]Y[Dab][dL][Dab][Cha]V[Cit]C[AEEA][Aun]-OH; thioether N-14)
  IC50: 7.4 nM

## Cc1cccc(C[C@@H]2NC(=O)[C@H](CC(=O)O)NC(=O)[C@H](Cc3ccc(OCC(=O)O)cc3)NC(=O)[C@H](CCCNC(=N)N)NC(=O)CSC[C@@H](C(=O)NCCOCCOCC(=O)NCCCCCCCCCCC(=O)O)NC(=O)[C@H](CCC(N)=O)NC(=O)[C@H](C(C)C)NC(=O)[C@H](CC3CCCCC3)NC(=O)[C@H](CCN)NC(=O)[C@@H](CC(C)C)NC(=O)[C@H](CCN)NC(=O)[C@H](Cc3ccc(O)cc3)NC(=O)[C@H](Cc3ccc(-c4ccccc4)cc3)NC(=O)[C@H](C(C)C)NC2=O)c1 [Compound 3398] ({CH2CO}-RY(Carboxymethyl)D[Phe(3-Me)]V[Bip]Y[Dab][dL][Dab][Cha]VQC[AEEA][Aun]-OH; thioether N-14)
  IC50: 5.8 nM

## CC(C)C[C@H]1NC(=O)[C@H](CCCN)NC(=O)[C@H](CCCNC(N)=O)NC(=O)[C@H](Cc2ccc(-c3ccccc3)cc2)NC(=O)[C@H](C(C)C)NC(=O)[C@H](Cc2c[nH]c3ccccc23)NC(=O)[C@H](CC(=O)O)NC(=O)[C@H](Cc2ccc(OCC(=O)O)cc2)NC(=O)[C@H](CCCNC(=N)N)NC(=O)CSC[C@@H](C(=O)N[C@@H](CCC(=O)O)C(=O)NCCOCCOCC(=O)NCCCCCCCCCCC(=O)O)NC(=O)[C@H](C(C)O)NC(=O)[C@H](C(C)C)NC(=O)[C@H](CC2CCCCC2)NC(=O)[C@H](CCN)NC1=O (stereo partly drawn) [Compound 3399] ({CH2CO}-RY(Carboxymethyl)DWV[Bip][Cit][Orn][dL][Dab][Cha]V[Thr(3ξ)]CE[AEEA][Aun]-OH; thioether N-14)
  IC50: 19.4 nM

## Cc1cccc(C[C@@H]2NC(=O)[C@H](CC(=O)O)NC(=O)[C@H](Cc3ccc(OCC(=O)O)cc3)NC(=O)[C@H](CCCNC(=N)N)NC(=O)CSC[C@@H](C(=O)NCCOCCOCC(=O)N[C@H](CCC(=O)NCCCCCCCCCCC(=O)O)C(=O)O)NC(=O)[C@H](C(C)O)NC(=O)[C@H](C(C)C)NC(=O)[C@H](CC3CCCCC3)NC(=O)[C@H](CCN)NC(=O)[C@@H](CC(C)C)NC(=O)[C@H](CCCN)NC(=O)[C@H](CCCNC(N)=O)NC(=O)[C@H](Cc3ccc(-c4ccccc4)cc3)NC(=O)[C@H](C(C)C)NC2=O)c1 (stereo partly drawn) [Compound 3400] ({CH2CO}-RY(Carboxymethyl)D[Phe(3-Me)]V[Bip][Cit][Orn][dL][Dab][Cha]V[Thr(3ξ)]C[AEEA][d(γGlu)][Aun]-OH; thioether N-14)
  IC50: 8.7 nM

## CC(=O)NCCCC[C@@H]1NC(=O)[C@H](C(C)C)NC(=O)[C@H](CC2CCCCC2)NC(=O)[C@H](CCN)NC(=O)[C@@H](CC(C)C)NC(=O)[C@H](CCCN)NC(=O)[C@H](Cc2ccc(O)cc2)NC(=O)[C@H](Cc2ccc(-c3ccccc3)cc2)NC(=O)[C@H](C(C)C)NC(=O)[C@H](Cc2c[nH]c3ccccc23)NC(=O)[C@H](CC(=O)O)NC(=O)[C@H](Cc2ccc(OCC(=O)O)cc2)NC(=O)[C@H](CCCNC(=N)N)NC(=O)CSC[C@@H](C(=O)NCCOCCOCC(=O)N[C@H](CCC(=O)NCCCCCCCCCCC(=O)O)C(=O)O)NC1=O [Compound 3401] ({CH2CO}-RY(Carboxymethyl)DWV[Bip]Y[Orn][dL][Dab][Cha]VK(Ac)C[AEEA][d(γGlu)][Aun]-OH; thioether N-14)
  IC50: 6.9 nM

## Cc1cccc(C[C@@H]2NC(=O)[C@H](CC(=O)O)NC(=O)[C@H](Cc3ccc(O)cc3)NC(=O)[C@H](CC(N)=O)NC(=O)CSC[C@@H](C(=O)NCCCCCCCCCCC(=O)O)NC(=O)[C@H](CCCNC(N)=O)NC(=O)[C@H](C(C)C)NC(=O)[C@H](CC3CCCCC3)NC(=O)[C@H](CCN)NC(=O)[C@@H](CC(C)C)NC(=O)[C@H](CCCN)NC(=O)[C@H](Cc3ccc(O)cc3)NC(=O)[C@H](Cc3ccc(-c4ccccc4)cc3)NC(=O)[C@H](C(C)C)NC2=O)c1 [Compound 3403] ({CH2CO}-NYD[Phe(3-Me)]V[Bip]Y[Orn][dL][Dab][Cha]V[Cit]C[Aun]-OH; thioether N-14)
  IC50: 10.7 nM

## CC(=O)NCCCC[C@@H]1NC(=O)[C@H](C(C)C)NC(=O)[C@H](CC2CCCCC2)NC(=O)[C@H](CCN)NC(=O)[C@@H](CC(C)C)NC(=O)[C@H](CCCN)NC(=O)[C@H](Cc2ccc(O)cc2)NC(=O)[C@H](Cc2ccc(-c3ccccc3)cc2)NC(=O)[C@H](C(C)C)NC(=O)[C@H](Cc2c[nH]c3ccccc23)NC(=O)[C@H](CC(=O)O)NC(=O)[C@H](Cc2ccc(C(=O)O)cc2)NC(=O)[C@H](Cc2ccc(OCC(=O)O)cc2)NC(=O)CSC[C@@H](C(=O)N[C@H](CCN)C(=O)NCCCCCCCCCCC(=O)O)NC1=O [Compound 3404] ({CH2CO}-Y(Carboxymethyl)[Phe(4-COOH)]DWV[Bip]Y[Orn][dL][Dab][Cha]VK(Ac)C[dDab][Aun]-OH; thioether N-14)
  IC50: 15 nM

## CC(C)C[C@H]1NC(=O)[C@H](CCCN)NC(=O)[C@H](Cc2ccc(O)cc2)NC(=O)[C@H](Cc2ccc(-c3ccccc3)cc2)NC(=O)[C@H](C(C)C)NC(=O)[C@H](Cc2c[nH]c3ccccc23)NC(=O)[C@H](CC(=O)O)NC(=O)[C@H](Cc2ccc(OCC(=O)O)cc2)NC(=O)[C@H](CCCNC(=N)N)NC(=O)CSC[C@@H](C(=O)N[C@@H](CCN)C(=O)NCCCCCCCCCCC(=O)O)NC(=O)[C@H](CCC(N)=O)NC(=O)[C@H](C(C)C)NC(=O)[C@H](CC2CCCCC2)NC(=O)[C@H](CCN)NC1=O [Compound 3405] ({CH2CO}-RY(Carboxymethyl)DWV[Bip]Y[Orn][dL][Dab][Cha]VQC[Dab][Aun]-OH; thioether N-14)
  IC50: 8.2 nM

## CC(C)C[C@H]1NC(=O)[C@H](CCCN)NC(=O)[C@H](Cc2ccc(O)cc2)NC(=O)[C@H](Cc2ccc(-c3ccccc3)cc2)NC(=O)[C@H](C(C)C)NC(=O)[C@H](Cc2c[nH]c3ccccc23)NC(=O)[C@H](CC(=O)O)NC(=O)[C@H](Cc2ccc(OCC(=O)O)cc2)NC(=O)[C@H](CCCCNC(=N)N)NC(=O)CSC[C@@H](C(=O)N[C@@H](CCN)C(=O)NCCCCCCCCCCC(=O)O)NC(=O)[C@H](CCCNC(N)=O)NC(=O)[C@H](C(C)C)NC(=O)[C@H](CC2CCCCC2)NC(=O)[C@H](CCN)NC1=O [Compound 3407] ({CH2CO}-[hArg]Y(Carboxymethyl)DWV[Bip]Y[Orn][dL][Dab][Cha]V[Cit]C[Dab][Aun]-OH; thioether N-14)
  IC50: 21.2 nM
